These results are taken from publication PMC3238500 (Archives of biochemistry and biophysics, 2011).

The assay has as its target pyruvate carboxylase R472S mutant (RePC) (Rhizobium etli, UniProt Q2K340, R472S). The assay is classed as biochemical.

Turning to `CC(=O)SCCNC(=O)CCNC(=O)[C@H](O)C(C)(C)COP(=O)(O)OP(=O)(O)OC[C@H]1O[C@@H](n2cnc3c(N)ncnc32)[C@H](O)[C@@H]1OP(=O)(O)O` [acetyl CoA], the “Ka (activation constant)” value was found to be 1.65 ± 0.05 mM.
